# Source: ChEMBL document CHEMBL1137835, “2-(Anilino)imidazolines and 2-(benzyl)imidazoline derivatives as h5-HT1D serotonin receptor ligands” (Bioorg Med Chem Lett, 2004)
# What was measured:
# [1] = biological target: T1, 5-hydroxytryptamine receptor 1D (Homo sapiens, UniProt P28221); assay: Binding affinity towards human 5-hydroxytryptamine 1D receptor
# [2] = biological target: T2, Alpha-1A adrenergic receptor (Homo sapiens, UniProt P35348); assay: Binding affinity towards human Alpha-1 adrenergic receptor
# T2 sequence (P35348 whole entry): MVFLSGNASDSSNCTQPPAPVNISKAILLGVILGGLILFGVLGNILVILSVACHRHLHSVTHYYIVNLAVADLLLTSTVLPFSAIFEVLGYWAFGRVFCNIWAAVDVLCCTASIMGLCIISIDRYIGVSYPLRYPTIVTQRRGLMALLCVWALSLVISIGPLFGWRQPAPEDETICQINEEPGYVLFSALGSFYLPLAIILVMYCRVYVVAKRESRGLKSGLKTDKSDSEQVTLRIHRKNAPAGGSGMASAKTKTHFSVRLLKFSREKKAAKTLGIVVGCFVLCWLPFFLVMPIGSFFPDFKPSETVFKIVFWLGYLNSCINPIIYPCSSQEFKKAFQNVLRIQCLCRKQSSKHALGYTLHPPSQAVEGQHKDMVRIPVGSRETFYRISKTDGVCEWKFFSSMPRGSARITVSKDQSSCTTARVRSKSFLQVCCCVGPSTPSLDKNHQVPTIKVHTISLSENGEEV
# [3] = biological target: T3, 5-hydroxytryptamine receptor 1B (Homo sapiens, UniProt P28222); assay: Binding affinity towards human 5-hydroxytryptamine 1B receptor
# T3 sequence (P28222 whole entry): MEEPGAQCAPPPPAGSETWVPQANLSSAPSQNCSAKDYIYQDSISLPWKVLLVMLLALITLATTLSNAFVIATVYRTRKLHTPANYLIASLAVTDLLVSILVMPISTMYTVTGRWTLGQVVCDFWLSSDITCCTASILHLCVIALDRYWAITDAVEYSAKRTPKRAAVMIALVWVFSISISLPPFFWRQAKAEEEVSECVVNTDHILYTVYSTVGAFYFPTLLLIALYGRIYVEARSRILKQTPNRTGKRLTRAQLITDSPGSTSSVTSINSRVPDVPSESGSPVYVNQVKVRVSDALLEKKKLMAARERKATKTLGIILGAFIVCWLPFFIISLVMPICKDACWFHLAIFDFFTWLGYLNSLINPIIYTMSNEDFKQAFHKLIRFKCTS
# [4] = biological target: Serotonin 1 receptors; 5-HT1B & 5-HT1D (Homo sapiens) (UniProt P28222+P28221); assay: Ratio of 5-hydroxytryptamine 1B receptor to that of 5-hydroxytryptamine 1D receptor was determined; format: protein assay
# [5] = Plasma half-life in rat at a dose of 5 mg/kg; format: ADME, organism-based; set-up: dose 5 mg/kg
# [6] = Total plasma clearance in rat at a dose of 5 mg/kg; format: ADME, organism-based; set-up: dose 5 mg/kg; settings: read-out: Total clearance
# [7] = Volume of distribution of compound in rat body tissue at a dose of 5 mg/kg; format: ADME, organism-based; set-up: dose 5 mg/kg; settings: in vivo
# [8] = Oral bioavailability in rat (dose 5 mg/kg); format: ADME, organism-based; settings: in vivo
# Cavia porcellus [9] = species on record: Cavia porcellus; assay: Compound was tested for serotonergic activity on […] induced by electrical stimulation in guinea-pigs
# [10] = biological target: T4, Muscarinic acetylcholine receptor M4 (Homo sapiens) (UniProt P08173); assay: Inhibitory activity against human Muscarinic acetylcholine receptor M4 at 1000 nM
# T4 sequence (whole entry): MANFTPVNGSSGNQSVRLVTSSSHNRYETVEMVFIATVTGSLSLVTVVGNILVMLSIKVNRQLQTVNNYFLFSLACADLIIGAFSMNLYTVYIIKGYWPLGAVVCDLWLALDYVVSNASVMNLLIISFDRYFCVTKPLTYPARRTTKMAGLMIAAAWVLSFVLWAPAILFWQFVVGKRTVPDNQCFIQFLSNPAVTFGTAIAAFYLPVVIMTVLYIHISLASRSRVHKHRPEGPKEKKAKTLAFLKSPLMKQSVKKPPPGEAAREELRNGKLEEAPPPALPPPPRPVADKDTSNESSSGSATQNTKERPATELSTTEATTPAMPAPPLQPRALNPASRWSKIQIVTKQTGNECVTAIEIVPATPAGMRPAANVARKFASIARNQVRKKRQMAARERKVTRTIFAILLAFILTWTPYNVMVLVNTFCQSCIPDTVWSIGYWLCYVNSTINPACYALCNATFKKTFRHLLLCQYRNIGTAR
# Oryctolagus cuniculus = species on record: Oryctolagus cuniculus; assay: Agonistic activity tested in isolated rabbit saphenous vein; format: functional
# Cavia porcellus [11] = assay: Compound was tested for serotonergic activity on […] induced by electrical stimulation in guinea-pigs (3-7 nM/kg)
# [12] = biological target: T1, 5-hydroxytryptamine receptor 1D; settings: 1000 nM
# Description: Percent displacement of radioligand from human 5-hydroxytryptamine 1D receptor at 1000 nM
# [13] = biological target: T3, 5-hydroxytryptamine receptor 1B; settings: 1000 nM
# Description: Percent displacement of radioligand from human 5-hydroxytryptamine 1B receptor at 1000 nM
# T1 sequence (P28221 whole entry): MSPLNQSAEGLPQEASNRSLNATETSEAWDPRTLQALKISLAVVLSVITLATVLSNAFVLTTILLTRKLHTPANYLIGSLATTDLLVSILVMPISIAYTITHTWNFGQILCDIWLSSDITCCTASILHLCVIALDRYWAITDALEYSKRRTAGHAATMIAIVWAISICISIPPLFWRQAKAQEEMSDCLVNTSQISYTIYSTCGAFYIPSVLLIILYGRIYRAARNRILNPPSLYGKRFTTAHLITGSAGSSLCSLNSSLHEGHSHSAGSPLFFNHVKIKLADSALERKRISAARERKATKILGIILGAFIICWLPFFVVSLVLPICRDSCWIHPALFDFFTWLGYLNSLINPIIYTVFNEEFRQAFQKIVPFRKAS
smiles,measurement,setting,value
CC(C)(C)c1ccc(C2=NCCN2)cc1,Ki,[1],105 nM
same,Ki,[2],91 nM
Cc1cc(Br)cc(C)c1N=C1NCCN1,Ki,[3],1430 nM
same,Ki,[1],54 nM
same,Selectivity,[4],26
Cc1cc(C(C)(C)C)cc(C)c1CC1=NCCCN1,Ki,[3],4430 nM
same,Ki,[1],33 nM
same,half-life,[5],1.03 h
same,clearance,[6],28.9 mL/min/kg
same,Vd,[7],1.24 L/kg
same,bioavailability,[8],9.9%
same,IC50,Cavia porcellus [9],5 nM/kg
Cc1cc([N+](=O)[O-])cc(C)c1NC1=NCCN1,Selectivity,[4],30
c1ccc(NC2=NCCN2)cc1,Ki,[3],> 30000 nM
same,Ki,[1],> 30000 nM
Cc1cc(C(C)(C)C)cc(C)c1CC1=NCCN1Cc1ccccc1,inhibition,[10],68%
same,EC50,Oryctolagus cuniculus,780 nM
same,half-life,[5],1.64 h
same,clearance,[6],57.6 mL/min/kg
same,Vd,[7],7.28 L/kg
same,bioavailability,[8],9.3%
same,IC50,Cavia porcellus [9],0.4 nM/kg
CNS(=O)(=O)Cc1ccc2[nH]cc(CCN(C)C)c2c1,IC50,Cavia porcellus [11],7 nM/kg
Cc1cc(C(C)(C)C)cc(C)c1NC1=NCCN1,Selectivity,[4],40
Clc1cc(I)cc(Cl)c1N=C1NCCN1 [PI-CLONIDINE],Ki,[3],1980 nM
same,Ki,[1],50 nM
same,Selectivity,[4],40
Cc1cccc(C)c1CC1=NCCN1,Selectivity,[4],> 4
Clc1cccc(Cl)c1NC1=NCCN1,inhibition,[12],< 5%
same,inhibition,[13],< 5%
Cc1cc(Br)cc(C)c1CC1=NCCN1,Selectivity,[4],20
Cc1cc(C(C)(C)C)cc(C)c1CC1=NCCN1C,half-life,[5],0.95 h
same,clearance,[6],66.4 mL/min/kg
same,Vd,[7],3.97 L/kg
same,bioavailability,[8],42.1%
same,IC50,Cavia porcellus [9],10 nM/kg
Cc1cc([N+](=O)[O-])cc(C)c1N=C1NCCN1,Ki,[3],10200 nM
same,Ki,[1],330 nM
Cc1cc(C(C)(C)C)cc(C)c1CC1=NCCN1 [XYLOMETAZOLINE],Ki,[3],13 nM
same,Ki,[2],91 nM
Cc1cccc(C)c1N=C1NCCN1,Ki,[3],> 30000 nM
same,Ki,[1],2080 nM
same,Selectivity,[4],> 10
Cc1cc(C(C)(C)C)cc(C)c1N=C1NCCN1,Ki,[3],12 nM
same,Ki,[1],0.3 nM
